Current after loading, current before loading and inhibition rate data for 1 compound are collected here from patent US10179802B2 (priority 2014, dated 2019).

This test relates to HVA calcium channel. The test is classed as cell-based, rat.

With `COC(=O)C1=C(C)NC(C)=C(C(=O)OC)C1c1ccccc1[N+](=O)[O-]` [Nifedipine], the current after loading was −734.31 pA and the current before loading is on record as −1471.35 pA. Also, the inhibition rate (10 µM) stood at 50.09%.
